According to ChEMBL document CHEMBL1123713, “Synthesis and calcium channel antagonist activity of dialkyl 4- (dihydropyridinyl)-1,4-dihydro-2,6-dimethyl-3,5-pyridinecarboxylates” (J Med Chem, 1987):

These compounds were tested against Muscarinic acetylcholine receptor (Homo sapiens) (UniProt P20309+P08173+P11229+P08172+P08912). Details: Cavia porcellus.
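Wherever ID50 is given: blockade of Ca2+-dependent contraction driven by muscarinic receptors in longitudinal smooth muscle strips of guinea pig ileum.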
Description: Inhibition of muscarinic receptor mediated [Ca2+] dependent contraction of guinea pig ileal longitudinal smooth muscle.

Row | ID50 [nM] | Compound
1 | 128 | CO/C(O)=C1\C(C)=NC(C)=C(C(=O)OCC(C)C)C1C1=CC=CN(C(=O)OC(C)(C)C)C1 (stereo not given)
2 | 2030 | CC1=NC(C)=C(C(=O)OCC(C)C)C(C2=CCN(C(=O)OC(C)(C)C)C=C2)/C1=C(\O)OCC(C)C (stereo not given)
3 | 3690 | COC(=O)C1=C(C)N=C(C)/C(=C(/O)OC)C1C1=CC=CN(C(=O)Oc2ccccc2)C1 (stereo not given)
4 | 51600 | COC(=O)N1C=CC=C(C2C(C#N)=C(C)N=C(C)/C2=C(/O)OC)C1 (stereo not given)
5 | 510 | CC1=NC(C)=C(C(=O)OCC(C)C)C(C2=CCN(C(=O)Oc3ccccc3)C=C2)/C1=C(\O)OCC(C)C (stereo not given)
6 | 1010 | COC(=O)N1C=CC(C2C(C(=O)OC(C)C)=C(C)N=C(C)/C2=C(/O)OC(C)C)=CC1 (stereo not given)
7 | 31 | COC(=O)N1C=CC=C(C2C(C(=O)OCC(C)C)=C(C)N=C(C)/C2=C(/O)OC)C1 (stereo not given)
8 | 6460 | CC1=NC(C)=C(C(=O)OCC(C)C)C(C2=CC=CN(C(=O)Oc3ccccc3)C2)/C1=C(\O)OCC(C)C (stereo not given)
9 | 237 | CO/C(O)=C1\C(C)=NC(C)=C(C(=O)OC(C)C)C1C1=CC=CN(C(=O)OC(C)(C)C)C1 (stereo not given)
10 | 672 | CCOC(=O)C1=C(C)N=C(C)/C(=C(/O)OCC)C1C1=CC=CN(C(=O)OC(C)(C)C)C1 (stereo not given)
11 | 158 | COC(=O)N1C=CC=C(C2C(C(=O)OC(C)C)=C(C)N=C(C)/C2=C(/O)OC)C1 (stereo not given)
12 | 1180 | CO/C(O)=C1\C(C)=NC(C)=C(C(=O)OCC(C)C)C1C1=CCN(C(=O)OC(C)(C)C)C=C1 (stereo not given)
13 | 589 | COC(=O)C1=C(C)N=C(C)/C(=C(/O)OC)C1C1=CC=CN(C(=O)OC)C1 (stereo not given)
14 | 771 | COC(=O)N1C=CC=C(C2C(C(=O)OCC(C)C)=C(C)N=C(C)/C2=C(/O)OCC(C)C)C1 (stereo not given)
15 | 81000 | CO/C(O)=C1\C(C)=NC(C)=C(C(=O)OCC(C)C)C1C1=CCN(C(=O)Oc2ccccc2)C=C1 (stereo not given)
16 | 2430 | CCOC(=O)C1=C(C)N=C(C)/C(=C(/O)OCC)C1C1=CCN(C(=O)OC)C=C1 (stereo not given)
17 | 900 | CO/C(O)=C1\C(C)=NC(C)=C(C(=O)OC(C)C)C1C1=CC=CN(C(=O)Oc2ccccc2)C1 (stereo not given)
18 | 865 | CCOC(=O)C1=C(C)N=C(C)/C(=C(/O)OCC)C1C1=CC=CN(C(=O)Oc2ccccc2)C1 (stereo not given)
19 | 1760 | COC(=O)N1C=CC(C2C(C(=O)OCC(C)C)=C(C)N=C(C)/C2=C(/O)OC)=CC1 (stereo not given)
20 | 67500 | COC(=O)N1C=CC(C2C(C#N)=C(C)NC(C)=C2C#N)=CC1
21 | 1720 | COC(=O)N1C=CC(C2C(C(=O)OCC(C)C)=C(C)N=C(C)/C2=C(/O)OCC(C)C)=CC1 (stereo not given)
22 | 114 | CC1=NC(C)=C(C(=O)OC(C)C)C(C2=CC=CN(C(=O)OC(C)(C)C)C2)/C1=C(\O)OC(C)C (stereo not given)
23 | 33900 | COC(=O)N1C=CC=C(C2C(C#N)=C(C)NC(C)=C2C#N)C1
24 | 7470 | COC(=O)C1=C(C)N=C(C)/C(=C(/O)OC)C1C1=CCN(C(=O)OC)C=C1 (stereo not given)
25 | 5770 | COC(=O)C1=C(C)N=C(C)/C(=C(/O)OC)C1C1=CC=CN(C(=O)OC(C)(C)C)C1 (stereo not given)
26 | 1670 | CC1=NC(C)=C(C(=O)OC(C)C)C(C2=CC=CN(C(=O)Oc3ccccc3)C2)/C1=C(\O)OC(C)C (stereo not given)
27 | 45 | CO/C(O)=C1\C(C)=NC(C)=C(C(=O)OCC(C)C)C1C1=CC=CN(C(=O)Oc2ccccc2)C1 (stereo not given)
28 | 3420 | CC1=NC(C)=C(C(=O)OCC(C)C)C(C2=CC=CN(C(=O)OC(C)(C)C)C2)/C1=C(\O)OCC(C)C (stereo not given)
29 | 131 | COC(=O)N1C=CC=C(C2C(C(=O)OC(C)C)=C(C)N=C(C)/C2=C(/O)OC(C)C)C1 (stereo not given)
30 | 180 | CCOC(=O)C1=C(C)N=C(C)/C(=C(/O)OCC)C1C1=CC=CN(C(=O)OC)C1 (stereo not given)

Each compound was assayed against Voltage-gated L-type calcium channel (Homo sapiens, UniProt Q13936+Q13698+Q01668+O60840) (assay: Negative log antagonist concentration causing 50% displacement of [3H]nifedipine from guinea pig ileal smooth muscle membrane.). Details: target entry is the homologue from another species.
Assay type: tissue-based, Cavia porcellus, Muscle tissue

Row | Compound | -Log KD50
31 | COC(=O)C1=C(C)NC(C)=C(C(=O)OC)C1c1ccccc1[N+](=O)[O-] [NIFEDIPINE] | 9.08

Organism: Cavia porcellus
Assay: Negative logarithm antagonist concentration causing 50% inhibition of tonic CD response in the guinea pig ileal longitudinal smooth muscle preparation
Assay type: functional, Muscle tissue
Details: not given

Row | Compound | -Log ID50
32 | COC(=O)C1=C(C)N=C(C)/C(=C(/O)OC)C1C1=CC=CN(C(=O)Oc2ccccc2)C1 (stereo not given) | 5.43
33 | COC(=O)C1=C(C)N=C(C)/C(=C(/O)OC)C1C1=CC=CN(C(=O)OC)C1 (stereo not given) | 6.23
34 | COC(=O)C1=C(C)N=C(C)/C(=C(/O)OC)C1C1=CC=CN(C(=O)OC(C)(C)C)C1 (stereo not given) | 5.24
35 | CC1=NC(C)=C(C(=O)OC(C)C)C(C2=CC=CN(C(=O)Oc3ccccc3)C2)/C1=C(\O)OC(C)C (stereo not given) | 5.78
